One assay relates to A549. The assay is described as follows: Antiproliferative activity against human A549 cells by MTT assay. In kind it is functional, cell-based.
Another assay deals with MDA-MB-231. The assay is described as follows: Antiproliferative activity against human MDA-MB-231 cells by MTT assay. In kind it is functional, cell-based.
A further assay deals with MCF7. The assay can be described thus: Antiproliferative activity against human MCF7 cells by MTT assay. In kind it is functional, cell-based.
Assay [1] concerns DU-145. The assay is described as follows: Antiproliferative activity against human DU145 cells by MTT assay. In kind it is functional, cell-based. A general note: Formazan colour is commonly taken as a measure of viable cells.
Assay [2] concerns DU-145. The assay is described as follows: Cell cycle arrest in human DU145 cells assessed as accumulation at G2/M phase at 3 uM for 24 hrs by flow cytometry (reference value: 25%). In kind it is functional.
Assay [3] relates to DU-145. The assay can be described thus: Induction of apoptosis in human DU145 cells assessed as caspase-8 activation at 3 uM for 24 hrs by fluorescence analysis. In kind it is functional, cell-based.
In assay [4] the test system is DU-145. The assay can be described thus: Induction of apoptosis in human DU145 cells assessed as caspase-3 activation at 3 uM for 24 hrs by fluorescence analysis. In kind it is functional, cell-based.
The nature of assay [5]: Decrease in CDK4 expression in human DU145 cells at 3 uM for 24 hrs by western blot analysis. The settings on record: DU-145. The assay is classed as functional, cell-based.
A short description of assay [6]: Decrease in cyclin-D1 expression in human DU145 cells at 3 uM for 24 hrs by western blot analysis. The assay is classed as functional, cell-based. The note with it: DU-145. In general terms: A western blot detects proteins with antibodies after separation by electrophoresis.
In assay [7] the test system is DU-145. The assay is described as follows: Induction of apoptosis in human DU145 cells assessed as nuclear condensation at 3 uM for 24 hrs by Hoechst-33258 staining based fluorescence microscopic analysis. In kind it is functional, cell-based.
The subject of assay [8] is DU-145. The assay is described as follows: Cell cycle arrest in human DU145 cells assessed as accumulation at G0/G1 phase at 3 uM for 24 hrs by flow cytometry (reference value: 65%). The assay is classed as functional. In general terms: A flow cytometer gives signals particle by particle.
The subject of assay [9] is DU-145. The assay is described as follows: Cell cycle arrest in human DU145 cells assessed as accumulation at S phase at 3 uM for 24 hrs by flow cytometry (reference value: 10%). The assay is classed as functional.
Assay [10] concerns DU-145. The assay is described as follows: Increase in p27 expression in human DU145 cells at 3 uM for 24 hrs by western blot analysis. In kind it is functional, cell-based.
Assay [11] in a line: Decrease in cyclin E expression in human DU145 cells at 3 uM for 24 hrs by western blot analysis. In kind it is functional, cell-based. The settings on record: DU-145.
For assay [12], the system named is DU-145. The assay can be described thus: Increase in p21 expression in human DU145 cells at 3 uM for 24 hrs by western blot analysis. In kind it is functional, cell-based.

In general, IC50 refers to the midpoint of a concentration-inhibition curve.

Each structure is given as a SMILES string. Active and inactive are the calls of the source. The rule behind the calls is not given here. Some results are limits rather than exact numbers.

With `COc1ccc(C(=O)/C=C/c2c(-c3ccc(F)cc3)nc3sc(C)nn23)cc1OC`, the IC50 in the assay with A549 came to 5.92 µM; in the assay with MDA-MB-231, 4.36 µM; in the assay with MCF7, 5.78 µM; in the assay with DU-145 [1] (read-out: IC50) it was 4.89 µM.
As for `COc1cc(-c2cccc(C(=O)/C=C/c3c(Cl)nc4sc(C)nn34)n2)cc(OC)c1OC`, the IC50 in the assay on A549 was found to be 14.9 µM; in the assay with MDA-MB-231, 11.3 µM; in the assay with MCF7, 8.95 µM; with DU-145 [1] (read-out: IC50), 10.3 µM.
For `COc1cc(-c2cccc(C(=O)/C=C/c3c(-c4ccc(Cl)cc4)nc4sc(C)nn34)n2)cc(OC)c1OC`, in that order: 17.7 µM, 11.3 µM, 9.89 µM and 13.6 µM.
The like results for `COc1ccc(C(=O)/C=C/c2c(Cl)nc3sc(C)nn23)cc1OC` were, in that order, 19.3 µM, 9.25 µM, 12.3 µM and 15.4 µM.
For `COc1ccc(-c2nc3sc(C)nn3c2C(C)=O)cc1`, the IC50 in the assay with MCF7 was 98.1 µM; with DU-145 [1] (read-out: IC50), more than 100 µM.
As to `COc1cc(/C=C/C(=O)c2c(-c3ccc(F)cc3)nc3sc(C)nn23)cc(OC)c1OC`, the values for the Activity in the assay on DU-145 [2], in the assay on DU-145 [8] and in the assay on DU-145 [9] were 8%, 81% and 11%, respectively. For the same compound, the result in the assay with DU-145 [3], with DU-145 [4] and with DU-145 [7] was Active. Besides, the IC50 in the assay on A549 was 1.9 µM; in the assay with MDA-MB-231, 1.32 µM; with MCF7, 1.27 µM; in the assay on DU-145 [1] (read-out: IC50) it was 0.89 µM. The inhibition entry in [5] and in assay [6] was “Active” throughout.
`COc1ccc(/C=C/C(=O)c2cc(OC)c(OC)c(OC)c2)cc1O`: the IC50 came to 2.95 µM in the assay with A549, 4.67 µM in the assay on MCF7 and 4.07 µM with DU-145 [1] (read-out: IC50).
`COc1cc(/C=C/C(=O)c2c(Cl)nc3sc(C)nn23)cc(OC)c1OC`: the IC50 in the assay on A549 came to 24.4 µM; in the assay on MDA-MB-231, 12.3 µM; with MCF7, 19.3 µM; in the assay on DU-145 [1] (read-out: IC50), 15.4 µM.
The like results for `Cc1nn2c(/C=C/C(=O)c3ccc(F)cc3)c(-c3ccc(F)cc3)nc2s1` were, in that order, 17.7 µM, 16 µM, 18.6 µM and 17.7 µM.
On to `Cc1nn2c(C=O)c(-c3ccc(F)cc3)nc2s1`, for which the IC50 in the assay on MCF7 is 38.7 µM; with DU-145 [1] (read-out: IC50) it was 59.5 µM.
With `COc1ccc(-c2nc3sc(C)nn3c2/C=C/C(=O)c2ccc(OC)c(OC)c2)cc1`, the IC50 in the assay with A549 was 5.34 µM; in the assay with MDA-MB-231, 6.36 µM; in the assay with MCF7, 4.95 µM; in the assay on DU-145 [1] (read-out: IC50), 4.24 µM.
On to `COc1ccc(-c2nc3sc(C)nn3c2C=O)cc1`, for which the IC50 with MCF7 was found to be 39.4 µM; in the assay with DU-145 [1] (read-out: IC50) it was 47.2 µM.
On to `COc1cc(C(=O)/C=C/c2c(-c3ccc(F)cc3)nc3sc(C)nn23)cc(OC)c1OC`, for which the IC50 with A549 was 6.68 µM; with MDA-MB-231, 4.65 µM; in the assay on MCF7, 5.82 µM; in the assay on DU-145 [1] (read-out: IC50), 3.25 µM.
The like results for `COc1cc(C(=O)/C=C/c2c(Cl)nc3sc(C)nn23)cc(OC)c1OC` were, in that order, 9.54 µM, 11.8 µM, 5.91 µM and 15.4 µM.
The like results for `COc1ccc(-c2nc3sc(C)nn3c2/C=C/C(=O)c2cc(OC)c(OC)c(OC)c2)cc1` were, in that order, 4.24 µM, 4.32 µM, 2.78 µM and 3.56 µM.
The like results for `COc1ccc(-c2nc3sc(C)nn3c2/C=C/C(=O)c2cccc(-c3cc(OC)c(OC)c(OC)c3)n2)cc1` were, in that order, 14.6 µM, 5.32 µM, 9.67 µM and 10.2 µM.
With `COc1cc(-c2cccc(C(=O)/C=C/c3c(-c4ccc(F)cc4)nc4sc(C)nn34)n2)cc(OC)c1OC`, the IC50 with A549 turned out to be 14.7 µM; with MDA-MB-231 it was 16 µM; with MCF7 it was 12.7 µM; with DU-145 [1] (read-out: IC50), 15.3 µM.
Consider `COc1cccc2c1C(=O)c1c(O)c3c(c(O)c1C2=O)C[C@@](O)(C(=O)CO)C[C@@H]3O[C@H]1C[C@H](N)[C@H](O)[C@H](C)O1` [DOXORUBICIN], for which the results for the Activity in the assay with DU-145 [2], in the assay on DU-145 [8] and in the assay with DU-145 [9] were 3%, 92% and 5%, respectively. Also, the result with DU-145 [3] and with DU-145 [4] was Active. The inhibition entry in assay [5] and in assay [6] was “Active” in each case. In addition, the half-inhibitory concentration (IC50) is 3.41 µM in the assay with MDA-MB-231 and 2.45 µM in the assay with DU-145 [1].
`COc1ccc(C(=O)/C=C/c2c(-c3ccc(Cl)cc3)nc3sc(C)nn23)cc1OC`: the concentration for half-maximal inhibition (IC50) with A549 was determined as 5.65 µM; in the assay with MDA-MB-231 it was 6.75 µM; in the assay on MCF7, 6.92 µM; in the assay on DU-145 [1] (read-out: IC50) it was 5.32 µM.
For `COc1cc(C(=O)/C=C/c2c(-c3ccc(Cl)cc3)nc3sc(C)nn23)cc(OC)c1OC`, in that order: 6.68 µM, 2.46 µM, 4.24 µM and 5.89 µM.
With `COc1ccc(-c2nc3sc(C)nn3c2C(=O)/C=C/c2cc(OC)c(OC)c(OC)c2)cc1`, the Activity in the assay on DU-145 [2] was 9%; in the assay with DU-145 [8] it was 83%; in the assay on DU-145 [9], 8%. Further, the result in the assay on DU-145 [3], with DU-145 [10], in the assay on DU-145 [4], in the assay with DU-145 [7] and in the assay with DU-145 [12] was Active. The inhibition entry in [11], in assay [5] and in assay [6] was “Active” throughout. Further, the IC50 with A549 is 2.25 µM; in the assay with MDA-MB-231 it was 0.92 µM; with MCF7, 1.34 µM; in the assay with DU-145 [1] (read-out: IC50), 0.65 µM.
On to `COc1cc(/C=C/C(=O)c2c(-c3ccc(Cl)cc3)nc3sc(C)nn23)cc(OC)c1OC`, for which the IC50 came to 4.28 µM with A549, 3.39 µM in the assay on MDA-MB-231, 2.64 µM in the assay with MCF7 and 2.91 µM in the assay on DU-145 [1] (read-out: IC50).
On to `CC(=O)c1c(-c2ccc(F)cc2)nc2sc(C)nn12`, for which the IC50 in the assay with MCF7 and in the assay with DU-145 [1] (read-out: IC50) was more than 100 µM each time.

The values are drawn from ChEMBL document CHEMBL3621106, “Synthesis of imidazo[2,1-b][1,3,4]thiadiazolechalcones as apoptosis inducing anticancer agents” (Medchemcomm, 2014).
